According to US10780101B2, “Amide derivatives of squalamine for the treatment of infections” (VIRBAC, priority 2016, dated 2020):
Values after ≈ are worked out from the molar mass of the structure shown. Like-named read-outs stand apart in the source and are kept apart here.

Key:
[1] = tested on: S. aureus Human ATCC 25923; experiment: MIC determination, S. aureus human ATCC 25923; assay type: cell-based; details: Staphylococcus aureus, ATCC25923; Gram-positive; Mueller-Hinton medium, 24 h at 37° C.
Procedure: (§1) A negative control (2 mL of sterile culture medium)
(§2) A positive control (1940 μL of culture medium+40 μL of DMSO+20 μL of the bacterial suspension) from a thawed biological strain (the biological strains are stored at −80° C. in glycerol).
(§3) The tubes were incubated at 37° C. for 24 hours at 100 rpm.
(§4) The microorganisms were handled under a type L2 laboratory fume cupboard and, before any handling, a UV cycle was programmed and only sterile material was used. […] The chemical compounds to be tested were prepared in a DMSO/methanol mixture (50/50) at a concentration of 5 mg/mL.
(§5) After 24 hours of incubation, a measurement of the optical density was taken using a spectrophotometer at 600 nm, collecting 100 μL of the bacterial suspension diluted in 900 μL of the sterile culture medium. This test required the use of a 96-well plate and the required volume of the microbial suspension to be seeded was calculated for an OD corresponding to a value equal to 0.01 in each well. In this plate, the first line corresponded to the negative control (195 μL of sterile culture medium in each well), the second line corresponded to the positive control (seeded culture medium supplemented with 2% of DMSO), and the third line was loaded twice with bacterial suspension; 8 μL of test product were placed in each well. Thereafter, a 0.5 cascade dilution was performed from this line.
(§6) The first column served as inhibition control. A sterile filter was then placed on the microplate, allowing the passage of gases but not of contaminants. The microplate was incubated at 37° C. under a humid atmosphere for 24 hours.
(§7) NB: The medium used is Mueller-Hinton (MH) medium for bacteria. All the tests were performed in duplicate.
(§8) After incubation, the filter was replaced with a transparent film, and an OD reading was then taken in an iEMS plate spectrophotometer at 620 nm. Calculation of the minimum inhibitory concentration (MIC) was performed.

[2] = tested on: S. aureus Animal (340); experiment: MIC determination, S. aureus animal (340); assay type: cell-based; details: Staphylococcus aureus; Gram-positive; Mueller-Hinton medium, 24 h at 37° C.
Procedure: as §1, §2, §3, §4, §5, §6, §7, §8

[3] = tested on: S. intermedius Animal (1051997); experiment: MIC determination, S. intermedius animal (1051997); assay type: cell-based; details: Staphylococcus intermedius; Gram-positive; Mueller-Hinton medium, 24 h at 37° C.
Procedure: as §1, §2, §3, §4, §5, §6, §7, §8

[4] = tested on: E. faecalis Human ATCC 29212; experiment: MIC determination, E. faecalis human ATCC 29212; assay type: cell-based; details: Enterococcus faecalis, ATCC29212; Gram-positive; Mueller-Hinton medium, 24 h at 37° C.
Procedure: as §1, §2, §3, §4, §5, §6, §7, §8

[5] = tested on: E. coli Human ATCC 28922; experiment: MIC determination, E. coli human ATCC 28922; assay type: cell-based; details: Escherichia coli, ATCC28922; Gram-negative; Mueller-Hinton medium, 24 h at 37° C.
Procedure: as §1, §2, §3, §4, §5, §6, §7, §8

[6] = tested on: E. coli Animal (1956); experiment: MIC determination, E. coli animal (1956); assay type: cell-based; details: Escherichia coli; Gram-negative; Mueller-Hinton medium, 24 h at 37° C.
Procedure: as §1, §2, §3, §4, §5, §6, §7, §8

[7] = tested on: P. aeruginosa Human ATCC 27853; experiment: MIC determination, P. aeruginosa human ATCC 27853; assay type: cell-based; details: Pseudomonas aeruginosa, ATCC27853; Gram-negative; Mueller-Hinton medium, 24 h at 37° C.
Procedure: as §1, §2, §3, §4, §5, §6, §7, §8

[8] = tested on: P. aeruginosa Animal (1051575); experiment: MIC determination, P. aeruginosa animal (1051575); assay type: cell-based; details: Pseudomonas aeruginosa; Gram-negative; Mueller-Hinton medium, 24 h at 37° C.
Procedure: as §1, §2, §3, §4, §5, §6, §7, §8

[9] = tested on: CHO-K1 cells; experiment: WST1 cytotoxicity test on CHO-K1 cells; assay type: cell-based, Chinese hamster; details: Cricetulus griseus, read-out: IC50 (μg/mL) CHO
Procedure: Test WST1 was used to measure the cytotoxic activity of the products. This is a colorimetric test which makes it possible to measure the viability and the degree of cell proliferation. It is based on cleavage of the colorless tetrazolium salts WST-1 (4-[3-(4-iodophenyl)-2-(4-nitrophenyl)-2H-5-tetrazolio]-1,3-benzene disulfonate) with mitochondrial dehydrogenases to the yellow-colored formazan derivative, which may be quantified by spectrophotometry at 420-480 nm.
The WST1 test was performed on Chinese hamster ovary cells. The CHO-K1 cells (ATCC, USA) are kept in culture in McCoy's 5A medium supplemented with 10% fetal calf serum, 2 mM of L-glutamine and a mixture of penicillin-streptomycin (100 U/ml: 10 μg/ml). The culture is incubated at 37° C. under an atmosphere enriched in CO2 (5%), and subcultured every two days.
The cells are transferred into 96-well plates (25000 cells/mL) in whole McCoy's 5A medium, and maintained for 24 hours at 37° C. under a humid atmosphere enriched in CO2 (5%). Increasing concentrations of test products are added to the wells in double tests and 8 growth controls containing the cells in the medium alone are included in each series of tests. After 24 hours at 37° C. (5% CO2), the culture medium is removed, the cells are rinsed in phosphate buffer (PBS) and 50 μL of PBS containing 10% of reagent WST1 are added to each well. After 20 minutes of incubation at 37° C., the results are read by spectrophotometry at 450 nm.
The results are expressed in dose-response relationships, modeled by nonlinear regression analysis using the TableCurve software. The 50% inhibitory concentration (IC50) represents the concentration of product that is capable of reducing the cell viability by 50%.

[10] = tested on: P. aeruginosa (1051575); experiment: Potentiation of doxycycline activity (combination MIC); assay type: cell-based, Pseudomonas aeruginosa; details: in presence of doxycycline 2 μg/mL; 24 hours at 37° C.

Compound | MIC [1] [mg/L] | MIC [2] [mg/L] | MIC [3] [mg/L] | MIC [4] [mg/L] | MIC [5] [mg/L] | MIC [6] [mg/L] | MIC [7] [mg/L] | MIC [8] [mg/L] | IC50 ([9]; CHO-K1, 24 h) [µg/mL] | MIC - P. aeruginosa (1051575): content of compound of formula (I) to restore the doxycycline activity (at 2 μg/mL) [10] [mg/L] | IC50 ([9]; Table III, WST1 test, CHO-K1 cells, 24 hours) [µg/mL]
CCN(CC)C(=O)CC[C@@H](C)[C@H]1CCC2C3C(CC[C@@]21C)[C@@]1(C)CC[C@H](NCCCNCCCN)CC1C[C@H]3O (stereo partly drawn) [(13), 3β-norspermidino-N,N-diethylchenodeoxycholamide] | 2 (≈ 3.57 µM) | 4 (≈ 7.13 µM) | 2 (≈ 3.57 µM) | 2 (≈ 3.57 µM) | 8 (≈ 14.3 µM) | 8 (≈ 14.3 µM) | 16 (≈ 28.5 µM) | 16 (≈ 28.5 µM) | 22 (≈ 39.2 µM) | 2 | –
CC(C)NC(=O)CC[C@@H](C)[C@H]1CCC2C3C(CC[C@@]21C)[C@@]1(C)CC[C@H](NCCCNCCCNCCCN)CC1C[C@@H]3O (stereo partly drawn) [(14), 3β-norspermino-N-isopropylursodeoxycholamide] | 16 (≈ 26.5 µM) | 32 (≈ 53 µM) | 4 (≈ 6.62 µM) | 128 (≈ 212 µM) | 128 (≈ 212 µM) | 128 (≈ 212 µM) | 64 (≈ 106 µM) | 128 (≈ 212 µM) | 90 (≈ 149 µM) | 1 | –
CNC(=O)CC[C@@H](C)[C@H]1CCC2C3C(CC[C@@]21C)[C@@]1(C)CC[C@H](NCCCN2CCN(CCCN)CC2)CC1C[C@H]3O (stereo partly drawn) [(12), 3β-(1,4-bis(3-aminopropyl)piperazine)-N-methylchenodeoxycholamide] | 8 (≈ 13.6 µM) | 4 (≈ 6.8 µM) | 2 (≈ 3.4 µM) | 15 (≈ 25.5 µM) | 30 (≈ 51 µM) | 15 (≈ 25.5 µM) | 60 (≈ 102 µM) | 30 (≈ 51 µM) | 50 (≈ 85 µM) | 8 | –
CC(C)NC(=O)CC[C@@H](C)[C@H]1CCC2C3C(CC[C@@]21C)[C@@]1(C)CC[C@H](NCCCN(CCCN)CCCN)CC1C[C@@H]3O (stereo partly drawn) [(48), 3β-(tris(3-aminopropyl)amine)-N-isopropylursodeoxycholamide] | 30 (≈ 49.7 µM) | 15 (≈ 24.8 µM) | 8 (≈ 13.2 µM) | 60 (≈ 99.3 µM) | > 120 | 120 (≈ 199 µM) | 120 (≈ 199 µM) | 120 (≈ 199 µM) | 42 (≈ 69.5 µM) | 4 | –
CC(C)NC(=O)CC[C@@H](C)[C@H]1CCC2C3CCC4C[C@@H](NCCCNCCCNCCCN)CC[C@]4(C)C3CC[C@@]21C (stereo partly drawn) [(17), 3β-norspermino-N-isopropyllithocholamide] | 8 (≈ 13.6 µM) | 8 (≈ 13.6 µM) | 4 (≈ 6.8 µM) | 8 (≈ 13.6 µM) | 16 (≈ 27.2 µM) | 32 (≈ 54.4 µM) | 64 (≈ 109 µM) | 32 (≈ 54.4 µM) | 17 (≈ 28.9 µM) | 2 | –
CC(C)NC(=O)CC[C@@H](C)[C@H]1CCC2C3CCC4C[C@@H](NCCNCCNCCNCCNCCN)CC[C@]4(C)C3C[C@H](O)[C@@]21C (stereo partly drawn) [(20), 3β-(pentaethylenehexamine)-N-isopropyldeoxycholamide] | 8 (≈ 12.3 µM) | 8 (≈ 12.3 µM) | 4 (≈ 6.17 µM) | 8 (≈ 12.3 µM) | 8 (≈ 12.3 µM) | 16 (≈ 24.7 µM) | 32 (≈ 49.4 µM) | 32 (≈ 49.4 µM) | 18 (≈ 27.8 µM) | 4 | –
CC(C)NC(=O)CC[C@@H](C)[C@H]1CCC2C3CCC4C[C@@H](NCCCN5CCN(CCCN)CC5)CC[C@]4(C)C3C[C@H](O)[C@@]21C (stereo partly drawn) [(3), 3β-(1,4-bis(3-aminopropyl)piperazine)-N-isopropyldeoxycholamide] | 15 (≈ 24.4 µM) | 15 (≈ 24.4 µM) | 4 (≈ 6.49 µM) | 124 (≈ 201 µM) | 124 (≈ 201 µM) | > 124 | 124 (≈ 201 µM) | 62 (≈ 101 µM) | 120 (≈ 195 µM) | 2 | –
CNC(=O)CC[C@@H](C)[C@H]1CCC2C3C(CC[C@@]21C)[C@@]1(C)CC[C@H](NCCCNCCCNCCCN)CC1C[C@H]3O (stereo partly drawn) [(10), 3β-norspermino-N-methylchenodeoxycholamide] | 7 (≈ 12.2 µM) | 1 (≈ 1.74 µM) | 1 (≈ 1.74 µM) | 14 (≈ 24.3 µM) | 14 (≈ 24.3 µM) | 7 (≈ 12.2 µM) | 28 (≈ 48.6 µM) | 5 (≈ 8.68 µM) | 35 (≈ 60.8 µM) | 1 | –
CC(C)NC(=O)CC[C@@H](C)[C@H]1CCC2C3C(C[C@H](O)[C@@]21C)[C@@]1(C)CC[C@H](NCCCNCCCCNCCCN)CC1C[C@H]3O (stereo partly drawn) [Compound (31), 3β-spermino-N-isopropylcholamide] | 4 (≈ 6.31 µM) | 8 (≈ 12.6 µM) | 4 (≈ 6.31 µM) | 8 (≈ 12.6 µM) | 16 (≈ 25.2 µM) | 32 (≈ 50.5 µM) | 64 (≈ 101 µM) | 32 (≈ 50.5 µM) | 40 (≈ 63.1 µM) | 1 | –
CC(C)NC(=O)CC[C@@H](C)[C@H]1CCC2C3C(CC[C@@]21C)[C@@]1(C)CC[C@H](NCCNCCNCCNCCNCCN)CC1C[C@@H]3O (stereo partly drawn) [(23), 3β-(pentaethylenehexamine)-N-isopropylursodeoxycholamide] | 32 (≈ 49.4 µM) | 32 (≈ 49.4 µM) | 16 (≈ 24.7 µM) | 64 (≈ 98.8 µM) | 128 (≈ 198 µM) | 128 (≈ 198 µM) | 128 (≈ 198 µM) | 128 (≈ 198 µM) | – | – | 115 (≈ 177 µM)
CCN(CC)C(=O)CC[C@@H](C)[C@H]1CCC2C3C(CC[C@@]21C)[C@@]1(C)CC[C@H](NCCCNCCCNCCCN)CC1C[C@H]3O (stereo partly drawn) [(39), 3β-norspermino-N,N-diethylchenodeoxycholamide] | 2 (≈ 3.24 µM) | 1 (≈ 1.62 µM) | 1 (≈ 1.62 µM) | – | 120 (≈ 194 µM) | 4 (≈ 6.47 µM) | 15 (≈ 24.3 µM) | 8 (≈ 12.9 µM) | – | 2 | –
CC(C)NC(=O)CC[C@@H](C)[C@H]1CCC2C3C(CC[C@@]21C)[C@@]1(C)CC[C@H](NCCCN2CCN(CCCN)CC2)CC1C[C@@H]3O (stereo partly drawn) [(16), 3β-(1,4-bis(3-aminopropyl)piperazine)-N-isopropylursodeoxycholamide] | 60 (≈ 97.4 µM) | 60 (≈ 97.4 µM) | 15 (≈ 24.4 µM) | 120 (≈ 195 µM) | 60 (≈ 97.4 µM) | 120 (≈ 195 µM) | > 120 | > 120 | – | – | –
